Experimental data as given in patent US6090945A, “Tetrahydro-beta-carbolines” (Eli Lilly and Company, priority 1998, dated 2000).
Where a name gives a salt, the structure may show the parent alone. Read-outs that look alike come from different tables or passages of the source.

Columns and labels:
5-HT1c receptor = target: T1, 5-HT1c receptor (Bos taurus, UniProt A0AAA9SBU1); experiment: 5-HT1c radioligand binding assay ([3H]mesulergine displacement); conditions: read-out: 5HT1C IC50 (binding displacement); choroid plexus; tritiated mesulergine 2.0 nM; 37° C., 15 minutes
T1 sequence (A0AAA9SBU1 33-457): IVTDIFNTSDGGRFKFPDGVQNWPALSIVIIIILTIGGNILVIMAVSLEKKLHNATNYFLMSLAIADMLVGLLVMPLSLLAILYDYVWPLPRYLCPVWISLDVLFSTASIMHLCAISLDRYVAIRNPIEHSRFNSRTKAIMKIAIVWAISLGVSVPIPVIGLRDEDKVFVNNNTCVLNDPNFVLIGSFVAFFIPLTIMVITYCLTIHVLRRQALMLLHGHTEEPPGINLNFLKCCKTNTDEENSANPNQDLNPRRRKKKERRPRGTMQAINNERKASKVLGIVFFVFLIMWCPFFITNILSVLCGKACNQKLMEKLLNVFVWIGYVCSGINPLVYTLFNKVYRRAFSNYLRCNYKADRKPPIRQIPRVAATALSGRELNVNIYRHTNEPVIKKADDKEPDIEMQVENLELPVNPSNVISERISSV
Procedure: I. Assay for 5-HT1c Affinity
Beef brain was removed immediately after slaughter, and choroid plexus were dissected over ice. […] Tissues were homogenized in 9 volumes of 0.32 mol/L sucrose and centrifuged at 1,000×g for 10 minutes. The supernatant was centrifuged at 17,000×g for 20 minutes. The pellet was suspended in 100 volumes of 50 mM Tris-HCl (pH7.4), incubated at 37° C. for 10 minutes and centrifuged at 50,000×g for 10 minutes, and the process was repeated three times. The final pellets were frozen at -70° C. and used within 2 weeks. Pellets were rehydrated with physiological buffer prior to use.
The reactions were terminated by rapid filtration, (Brandel Cell Harvestor), through Whatman GF/B glass filters that had been presoaked in Tris buffer pH 7.4. The filters were then washed 2 times with 5 ml of ice cold Tris buffer pH 7.4. Washed filters were placed in scintillation vials and 10 ml RedySolv, (Brandel), was added and samples were counted in a Searle D-300 beta counter. Means and standard error statistics were calculated for triplicate experimental determinations in certain cases. Mean values were obtained from three or more separate determinations. The incubation time for the reaction mixture was 15 minutes at 37° C.

5-HT2 receptor = 5-HT2 receptor (Rattus norvegicus, UniProt P14842); experiment: 5-HT2 radioligand binding assay ([3H]ketanserin displacement); set-up: species or system rat (Sprague-Dawley cerebral cortex)
[1] = rat cerebral cortex, tritiated ketanserin 1 nM, 37° C., read-out: 5HT2 IC50 (binding displacement)

Sequence of 5-HT2 receptor (P14842 whole entry): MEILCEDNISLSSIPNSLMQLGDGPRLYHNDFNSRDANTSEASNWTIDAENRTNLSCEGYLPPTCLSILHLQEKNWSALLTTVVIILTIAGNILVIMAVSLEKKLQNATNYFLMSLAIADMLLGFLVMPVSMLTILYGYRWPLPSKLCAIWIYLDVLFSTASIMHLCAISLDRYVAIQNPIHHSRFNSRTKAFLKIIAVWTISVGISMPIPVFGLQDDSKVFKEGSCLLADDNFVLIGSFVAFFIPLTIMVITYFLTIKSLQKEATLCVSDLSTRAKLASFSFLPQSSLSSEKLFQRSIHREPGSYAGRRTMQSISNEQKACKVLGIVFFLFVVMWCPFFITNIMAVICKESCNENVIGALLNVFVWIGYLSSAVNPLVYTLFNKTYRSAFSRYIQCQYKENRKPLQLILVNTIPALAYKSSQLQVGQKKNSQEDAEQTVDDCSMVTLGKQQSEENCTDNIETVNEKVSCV

IC50 (5-HT1c receptor) [nM] | IC50 (5-HT2 receptor; [1]) [nM] | Compound | IC50 (5-HT2 receptor) [nM]
86 | 211 | CCc1ccc2[nH]c3c(c2c1)CCN[C@H]3[C@H](C)c1ccc(OC)c(OC)c1 (relative stereo) [Example 42, (±) 6-ethyl-1-[(3,4-dimethoxyphenyl)-1-ethyl]-1,2,3,4-tetrahydro-9H-pyrido[3,4-b]indole (Z)-2-butenedioate] | –
213 | 310 | COc1ccc(CC2NCCc3c2[nH]c2c(C)cccc32)cc1OC (centres unmarked) [Example 1, 8-methyl-1-[(3,4-dimethoxyphenyl)methyl]-1,2,3,4-tetrahydro-9H-pyrido[3,4-b]indole] | –
237 | 255 | COc1ccc(CC2NCCc3c2[nH]c2c(OC)cccc32)cc1OC (centres unmarked) [Example 5, 8-methoxy-1-[(3,4-dimethoxyphenyl)methyl]-1,2,3,4-tetrahydro-9H-pyrido[3,4-]indole] | –
22 | > 100 | COc1ccc(CC2NCCc3c2[nH]c2ccc(C(C)(C)C)cc32)cc1OC (centres unmarked) [Example 8, 6-(1,1-dimethylethyl)-1-[(3,4-dimethoxyphenyl)methyl]1,2,3,4-tetrahydro-1-9H-pyrido-[3,4b]indole hydrochloride] | –
18 | 141 | COc1ccc(CC2NCCc3c2[nH]c2ccc(C)c(F)c32)cc1OC (centres unmarked) [Example 9, 5-fluoro-6-methyl-1-[(3,4-dimethoxyphenyl)-methyl]-1,2,3,4-tetrahydro-9H-pyrido[3,4-b]indole] | –
365 | – | COc1ccc(CC2NCCc3c2[nH]c2ccc(C4CCCCC4)cc32)cc1OC (centres unmarked) [Example 11, 6-cyclohexyl-1-[(3,4-dimethoxyphenyl)-methyl]-1,2,3,4-tetrahydro-9H-pyrido[3,4-b]indole hydrochloride] | > 1000
15 | > 100 | COc1ccc(CC2NCCc3c2[nH]c2c(C)ccc(C)c32)cc1OC (centres unmarked) [Example 12, 5,8-dimethyl-1,2,3,4-tetrahydro-1-[(3,4-dimethoxyphenyl)methyl]-9H-pyrido[3,4b]indole hydrochloride] | –
34 | > 100 | COc1ccc(CC2NCCc3c2[nH]c2c(C)cc(C)cc32)cc1OC (centres unmarked) [Example 14, 6,8-dimethyl-1,2,3,4-tetrahydro-1-[(3,4-dimethoxyphenyl)methyl]-9H-pyrido[3,4b]indole hydrochloride] | –
386 | – | COc1ccc(CC2c3[nH]c4ccc(C)cc4c3CCN2C)c(Cl)c1OC (centres unmarked) [Example 44, 2,6-dimethyl-1-[(2-chloro-3,4-dimethoxyphenyl)methyl]-1,2,3,4-tetrahydro-9H-pyrido[3,4-b]indole hydrochloride] | –
452 | – | COc1ccc(CC2c3[nH]c4ccc(C(C)C)cc4c3CCN2C)cc1OC (centres unmarked) [Example 45, 2-methyl-6-(1-methylethyl)-1,2,3,4-tetrahydro-1-[(3,4-dimethoxyphenyl)methyl]-9H-pyrido-[3,4b]indole maleate] | –

Compound | IC50 (5-HT1c receptor) [nM] | IC50 (5-HT2 receptor; [1]) [nM] | IC50 (5-HT2 receptor) [nM]
COc1ccc(CC2NCCc3c2[nH]c2c(Br)cccc32)cc1OC (centres unmarked) [Example 2, 8-bromo-1-[(3,4-dimethoxyphenyl)methyl]-1,2,3,4-tetrahydro-9H-pyrido[3,4-b]indole hydrochloride] | 34 | – | 67
COc1ccccc1CC1NCCc2c1[nH]c1ccc(C)cc21 (centres unmarked) [Example 23, 6-methyl-1-[(2-methoxyphenyl)methyl]-1,2,3,4-tetrahydro-9H-pyrido[3,4-b]indole hydrochloride] | 57 | – | –
COc1ccc(OC)c(CC2NCCc3c2[nH]c2ccc(C)cc32)c1 (centres unmarked) [Example 25, 6-methyl-1-[(2,5-dimethoxyphenyl)methyl]-1,2,3,4-tetrahydro-9H-pyrido[3,4-b]indole hydrochloride] | 79 | – | –
COc1cc(OC)c(OC)cc1CC1NCCc2c1[nH]c1ccc(C)cc21 (centres unmarked) [Example 26, 6-methyl-1-[(2,4,5-trimethoxyphenyl)-methyl]-1,2,3,4-tetrahydro-9H-pyrido[3,4-b]indole hydrochloride] | 53 | – | –
